Data: patent US20240254138A1, “TRICYCLIC PYRIMIDINES AS CYCLIN-DEPENDENT KINASE 7 (CDK7) INHIBITORS” (JANSSEN PHARMACEUTICA NV, priority 2021, published 2024)

How the values were obtained:
[1] = tested on: RNA Polymerase II Serine 5 phosphorylation in A549 cells overexpressing CDK7-mutant (C312S); assay: Imaging-based cellular RNA PolII Ser5 phosphorylation assay in A549 cells overexpressing CDK7-mutant (C312S); type: cell-based, human; settings: RNA PolII Ser5 phosphorylation, averaged over all measurements; for IC50: Homo sapiens, A549, A549 cells overexpressing CDK7-mutant (C312S), read-out: CDK7_A549 mutant hCDK7(pIC50) (converted)
Description: (§1) To evaluate inhibition of CDK7 kinase activity, a 384-well automated imaging assay was used. This assay detects Serine 5 phosphorylation on a unique heptapeptide sequence in the C-terminal domain of Rpb1 subunit of RNA polymerase II, the downstream substrate of CDK7. This heptapeptide sequence is repeated up to 52 times in the CTD of Rpb1.
(§2) A549 adenocarcinoma human alveolar basal epithelial cells (ATCC, CCL-185), rabbit Phospho-Rpb1 CTD (Ser5) antibody (D9N51 (Cell Signaling Technology)), DMEM (Sigma), Fetal Bovine Serum (Biowest), L-glutamine (Sigma), Penicillin/Streptomycin (Life Technologies), Sodium Pyruvate (Sigma), Hepes (Sigma), poly-D-lysine coated μclear 384 black plates (Greiner), formaldehyde (PolySciences), D-PBS (Sigma), Methanol (Sigma), Alexa Fluor 488 goat anti rabbit IgG secondary antibody (Life Technologies), HCS CellMask™ Deep Red stain (Life Technologies), Hoechst 33258 (Invitrogen).
(§3) RNA Polymerase II Serine 5 phosphorylation was detected using a specific rabbit Phospho-Rpb1 CTD (Ser5) antibody. A549 adenocarcinoma human alveolar basal epithelial cells were seeded in 20 μl medium (DMEM supplemented with 1% Fetal Bovine Serum (heat inactivated 30′ 56° C.), 2 mM L-glutamine, 50 U/ml penicillin 50 μg/ml streptomycin, 1 mM sodium pyruvate and 50 mM hepes) at 1000 cells/well and cultured in poly-D-lysine coated μclear 384 black plates for 20 hours at 37° C. and 5% CO2.
(§4) After incubation cells were challenged with compound for 3 hours at 37° C. and 5% CO2. DMSO was used as high control and as low control 10 μM of the following reference compound was used:
(§5) 40 nl of test compounds and controls were spotted in cell plates using Echo Liquid Handler (Echo 550, Labcyte). Incubation was followed by 20 minutes fixation with 20 μl 10% formaldehyde at room temperature. Medium/formaldehyde solution was removed, plates were washed 3 times with 30 μl D-PBS (w/o Ca^2+ and Ma^2+) and permeabilization was done by adding 20 μl ice cold methanol for 20 minutes. Cells were washed again 3 times with 30 μl D-PBS and 20 μl blocking buffer (25 ml fetal bovine serum in 500 ml D-PBS) was added for 1 hour.
(§6) After removing blocking buffer 20 μl 1/1000 primary antibody rabbit Phospho-Rpb1 CTD (Ser5) antibody was added which binds to the phosphorylated Serine5 of the heptapeptide sequences in the CTD of Rpb1. Primary antibody was removed, and plates were washed 3 times with 30 μl D-PBS followed by addition of 20 μl 1/2000 Alexa Fluor 488 goat anti rabbit IgG secondary antibody for final detection of Phospho-Rpb1 CTD (Ser5) together with 1/5000 HCS CellMask™ Deep Red stain for membrane staining and 1/5000 Hoechst 33258 for nucleus staining. Last, plates were washed 2 times with 30 μl D-PBS and wells were filled with 40 μL D-PBS, plates were sealed (Thermowell sealing tape) and stored at 4° C. until reading. Plates were read with Opera Phenix (Perkin Elmer) with 10× air objective. Data were calculated and analyzed in Phaedra.
(§7) IC50 values were calculated using the following formula: […]
(§8) Average value of all HC's and all LC's are used for normalizations.
(§9) A best-fit curve is fitted by a minimum sum of squares method to the plot of % Control vs. compound concentration. From this an IC50 value can be obtained. An estimate of the slope of the plot in terms of the Hill coefficient is also obtained.
In parallel this assay was performed in A549 cells overexpressing CDK7-mutant (C312S) to evaluate the effect of the covalent bond on potency and to screen for potential off-target effects. Mutation of Cysteine to Serine (C312S), a less nucleophilic amino acid, prevents CDK7 inhibitors from covalently binding to CDK7 and from inhibiting CDK7 activity in an irreversible manner. A stably transduced A549 cell pool was generated that overexpresses CDK7 mutant (C312S), but also expresses endogenous CDK7-WT. Covalent binders targeting the cysteine at position 312 will show a shift in potency in A549 cells overexpressing mutant C312S CDK7.

[2] = tested on: RNA Polymerase II Serine 5 phosphorylation (Rpb1 CTD, downstream substrate of CDK7) in A549 cells; assay: Imaging-based cellular RNA PolII Ser5 phosphorylation assay in A549 cells; type: cell-based, human; settings: wild-type CDK7, RNA PolII Ser5 phosphorylation, averaged over all measurements; for IC50: Homo sapiens, A549, A549 cells, read-out: CDK7_A549 Wild-type CDK7 (pIC50) (converted)
Description: as §1, §2, §3, §4, §5, §6, §7, §8, §9

Structure (SMILES) | IC50 [1] | IC50 [2] | CDK7_A549 mutant hCDK7(pIC50) ([1]; A549 cells overexpressing CDK7-mutant (C312S)) | CDK7_A549 Wild-type CDK7 (pIC50) ([2]; A549 cells)
C=CC(=O)N1CC[C@H](N2CCC(c3cc4c(c(C)n3)OCc3c(-c5cnn(C)c5)ccnc3N4)CC2)C1 (single isomer, unassigned) [Compound 293] | > 10 µM | 0.102 µM | – | –
C/C=C/C(=O)N1CC[C@H](N2CCC(c3cc4c(c(C)n3)OCc3c(-c5cnn(C)c5)ccnc3N4)CC2)C1 (single isomer, unassigned) [Compound 307] | > 10 µM | > 10 µM | – | –
C=C(C)C(=O)N1CC[C@@H](N2CCC(c3cc4c(c(C)n3)OCc3c(-c5cnn(C)c5)ccnc3N4)CC2)C1 (single isomer, unassigned) [Compound 311] | > 10 µM | > 10 µM | – | –
C=C(C)C(=O)N1CC[C@H](N2CCC(c3cc4c(c(C)n3)OCc3c(-c5cnn(C)c5)ccnc3N4)CC2)C1 (single isomer, unassigned) [Compound 312] | > 10 µM | > 10 µM | – | –
C=CC(=O)N1CC[C@H](N2CC(c3cc4c(c(C)n3)O[C@@H](C)c3c(C5CCOCC5)ccnc3N4)C2)C1 (single isomer, unassigned) [Compound 337] | > 10 µM | > 5.01 µM | – | –
CC#CC(=O)N1CCC(N2CC(c3cc4c(c(C)n3)O[C@@H](C)c3c(N5CCOCC5)ccnc3N4)C2)CC1 (single isomer, unassigned) [Compound 360] | > 10 µM | 0.676 µM | – | –
CC#CC(=O)N1CC(N2CCC(c3cc4c(c(C)n3)O[C@H](C)c3c(C5CCOCC5)ccnc3N4)CC2)C1 (single isomer, unassigned) [Compound 405] | > 10 µM | 0.0891 µM | – | –
C=CC(=O)N1CCC(N2CC(c3cc4c(c(C)n3)O[C@H](C)c3c(N5CCOCC5)ccnc3N4)C2)CC1 (single isomer, unassigned) [Compound 423] | 5.89 µM | 0.0589 µM | – | –

Results, then the molecule that gave them:

IC50 [1] | IC50 [2] | CDK7_A549 mutant hCDK7(pIC50) ([1]; A549 cells overexpressing CDK7-mutant (C312S)) | CDK7_A549 Wild-type CDK7 (pIC50) ([2]; A549 cells) | Structure (SMILES)
– | – | <5 | 7.24 | C=CC(=O)N1CC[C@@H](N2CCC(c3cc4c(c(C)n3)OCc3c(N5CCOCC5)ccnc3N4)CC2)C1 (single isomer, unassigned) [Compound 294]
> 10 µM | ~10 µM | – | – | C/C=C/C(=O)N1CC[C@@H](N2CCC(c3cc4c(c(C)n3)OCc3c(-c5cnn(C)c5)ccnc3N4)CC2)C1 (single isomer, unassigned) [Compound 302]
> 10 µM | 5.25 µM | – | – | C=CC(=O)N1CC[C@@H](N2CC(c3cc4c(c(C)n3)O[C@@H](C)c3c(C5CCOCC5)ccnc3N4)C2)C1 (single isomer, unassigned) [Compound 334]
> 10 µM | 7.76 µM | – | – | CC#CC(=O)N1CC(N2CC(c3cc4c(c(C)n3)O[C@@H](C)c3c(N5CCOCC5)ccnc3N4)C2)C1 (single isomer, unassigned) [Compound 356]
6.17 µM | 0.0398 µM | – | – | CC#CC(=O)N1CCC(N2CC(c3cc4c(c(C)n3)O[C@H](C)c3c(N5CCOCC5)ccnc3N4)C2)CC1 (single isomer, unassigned) [Compound 358]
> 10 µM | 2.19 µM | – | – | CC#CC(=O)N1CC(N2CCC(c3cc4c(c(C)n3)O[C@@H](C)c3c(N5CCOCC5)ccnc3N4)CC2)C1 (single isomer, unassigned) [Compound 371]
> 10 µM | > 10 µM | – | – | CC#CC(=O)N1CC(N2CC[C@H](c3cc4c(c(C)n3)O[C@@H](C)c3c(N5CCOCC5)ccnc3N4)C2)C1 (single isomer, unassigned) [Compound 395]
> 10 µM | > 10 µM | – | – | CC#CC(=O)N1CC(N2CC[C@H](c3cc4c(c(C)n3)O[C@H](C)c3c(N5CCOCC5)ccnc3N4)C2)C1 (single isomer, unassigned) [Compound 397]
> 10 µM | 0.933 µM | – | – | C=CC(=O)N1CCC(N2CC(c3cc4c(c(C)n3)O[C@@H](C)c3c(N5CCOCC5)ccnc3N4)C2)CC1 (single isomer, unassigned) [Compound 430]
> 10 µM | 4.57 µM | – | – | CC#CC(=O)N1CC(n2cc(-c3cc4c(c(C)n3)O[C@H](C)c3c(N5CCOCC5)ccnc3N4)cn2)C1 (single isomer, unassigned) [Compound 434]
